According to patent US6489350B1, “Methods for treating neuropathic pain using heteroarylmethanesulfonamides” (Elan Pharmaceuticals, Inc., priority 1999, dated 2002):
“Also recorded” adds a separate entry of the source.

Tests used:
[1] = test system: Rats with Streptozotocin (STZ)-Induced Diabetes Mellitus and Consequent Diabetic Neuropathy; assay: Paw withdrawal force (mechanical hyperalgesia) in rats with streptozotocin-induced diabetes; assay type: in vivo, Male Wistar rats; settings: for Paw withdrawal threshold force, Week 1 Mean: Week 1, before drug treatment (baseline); for Paw withdrawal threshold force, Week 2 Mean: Week 2, before drug treatment (baseline); for Paw withdrawal threshold force, Week 3 Mean: Week 3, before drug treatment (baseline); for Paw withdrawal threshold force, Week 4 Mean: Week 4, before drug treatment (baseline)
Experimental: Male Wistar rats (250-300 g), following an overnight fast, were made diabetic with 55 mg/kg i.p. streptozotocin (Sigma, St. Louis, Mo., USA). Tail ven blood was sampled 48 h later and glucose estimated by reflectance photometry (Reflocheck, Boehringer Mannheim). All STZ-treated rats had blood glucose >15 mmol/l and were included in the study. Animals were housed in boxes of three or four and maintained with food and water ad libitum for up to 6 weeks. non-diabetic control rats were housed in identical conditions. Each week (Friday) paw—pressure latency was measured as described immediately below.
A force was applied at a constant rate with a cone-shaped piston to the upper surface of the rat hindpaw until paw withdrawal; the force triggering withdrawal is measured as the “paw withdrawal force”. An arbitrary cut-off force of 240 g was adopted to preclude traumatic damage. Rats are trained such that latency is measured weekly, on Fridays.
At the start of week 5, drug treatments as defined for each of the groups set out below were commenced, such that 5 treatments preceded paw pressure testing. The injections and pressure test were timed so that, for each rat, the pressure test was made between 30 and 35 min after injection.
Monday of week 1 the rats were injected with streptozotocin and blood glucose determinations were made Wednesday of that week, on the Friday the 1st paw pressure test was performed. In weeks 2, 3, and 4 only paw pressure tests were performed on each of the Fridays. In week 5 treatments of groups C, D and E were begun with either zonisarnide (Groups C and D) or MK-801 (Group E) and paw pressure tests were performed on all groups on Friday.
Group B was given a single dose of zonisamide at 50 mg/kg on the Friday of week 6 and paw withdrawal force measured 30 min later.
Group D was maintained without treatment for week 6 (drug “washout”) and measured again on the Friday of week 6.
Data are means with standard deviations. Zonisamide was given once daily (p.o.) between 08:30 and 09:00 for 5 days during Week 5. MK-801 was given at 0.1 mg/kg i.p. twice daily (morning and evening). All measurements were made on Fridays between 10:30 and 13:30 hr. In Week 6, the designated “diabetic untreated” group (Group B) was given a single p.o. dose of 50 mg/kg zonisamide 2-3 h before measurement. For Week 6, drug treatment was withdrawn from Group D (last dose on Friday of week 5).

[2] = test system: formalin-evoked behavior in diabetic rats; settings: 50 mg/kg i.p. 30 min pre-test; 5.0% formalin; both control and diabetic rats; cited from earlier work
[3] = test system: formalin-induced hyperalgesia in rats; assay: Formalin test model in rats (paw flinches); assay type: in vivo, rat
Experimental: The formalin test model in rats was conducted based on the protocol developed and reported by Malmberg A. B. and Yaksh T. L. (1992) as an animal model of hyperalgesia.
The formalin pain test produces an “early” pain that rapidly rises and falls in intensity during the first five minutes after the injection, followed by a “late” pain, which begins about 15 minutes after the injection and persists for about an hour. It has been observed that this formalin-induced pain continues even after the nerves carrying pain signals have been blocked which implies that long-lasting pain is determined not only by sensory stimulation during the discomfort but also by brain processes that persist without continual priming.
Eight (8) animals received 100 mg/kg zonisamide via oral (gastric lavage tube) administration, and eight (8) animals received sterile water as a vehicle. On the morning of testing, a small metal band (0.5 g) was loosely placed around the right hind paw. After 1 hour, the rat was placed in a cylindrical plexiglass changer for adaptation. After one additional hour, the rat was then placed in a similar cylindrical chamber that was placed on the sensing pad of an automated formalin device that senses the movement of the metal band in the space above the area above the pad. The formalin test involved injecting 50 μl of 5% formalin into the dorsal surface of the right hindpaw. […] These flinches were counted automatically and continuously over the following one-hour interval. At one hour the animal was removed and sacrificed by carbon dioxide inhalation.
The results of the tests are presented in FIGS. 2A as summations at 5-minute intervals, and in 2B broken down into phase responses. (Phase I being the “early” pain response to the formalin injection and phase II, IIA and IIB being “late” phase parts of the facilitated response state discussed above and in the Detailed Description).

[4] = Group E diabetic, MK-801 0.1 mg/kg group
[5] = Group C diabetic, zonisamide 20 mg/kg group
[6] = Group D diabetic, zonisamide 50 mg/kg group
[7] = 100 mg/kg orally prior to 5% formalin injection, vs water vehicle

## C[C@]12N[C@H](Cc3ccccc31)c1ccccc12 [MK-801, dizocilpine]
[1]; [4]
  Paw withdrawal threshold force, Week 1 Mean: 214.9 g
  Paw withdrawal threshold force, Week 2 Mean: 207.1 g
  Paw withdrawal threshold force, Week 3 Mean: 200.0 g
  Paw withdrawal threshold force, Week 4 Mean: 191.4 g
[1]; Group E diabetic, 0.1 mg/kg i.p. twice daily for 5 days during Week 5
  Paw withdrawal threshold force, Week 5 Mean: 221.8 g

## NCC1(CC(=O)O)CCCCC1 [Gabapentin, 1-(aminomethyl)cyclohexaneacetic acid]
[2]
  Flinching during phases 1 and 2 of the formalin test: suppressed flinching

## NS(=O)(=O)Cc1noc2ccccc12 [zonisamide, 1,2-benzisoxazole-3-methanesulfonamide]
[1]; 20 mg/kg p.o. for 5 days, reduction in tolerated force still present and significant (p<0.0002)
  Effect on hyperalgesia (change in paw withdrawal force): attenuated this hyperalgesia
[1]; 50 mg/kg p.o. daily for 5 days, p=0.703, paired t-test
  Effect on hyperalgesia (change in paw withdrawal force): obliterated the change in paw withdrawal force; also recorded: increase in force necessary to evoke a hyperalgesic pain response
[1]; 4-5 weeks of STZ diabetes in rats, dose related
  Activity against mechanical hyperalgesia (conclusion): active against the mechanical hyperalgesia
[1]; Group B, previously untreated diabetic rats, single p.o. dose of 50 mg/kg in Week 6
  Paw withdrawal threshold force, Week 6 Mean: 213.6 g
[1]; [5]
  Paw withdrawal threshold force, Week 1 Mean: 212.2 g
  Paw withdrawal threshold force, Week 2 Mean: 206.4 g
  Paw withdrawal threshold force, Week 3 Mean: 199.6 g
  Paw withdrawal threshold force, Week 4 Mean: 190.0 g
[1]; Group C diabetic, 20 mg/kg p.o. once daily for 5 days during Week 5
  Paw withdrawal threshold force, Week 5 Mean: 195.0 g
[1]; [6]
  Paw withdrawal threshold force, Week 1 Mean: 212.72 g
  Paw withdrawal threshold force, Week 2 Mean: 208.9 g
  Paw withdrawal threshold force, Week 3 Mean: 200.7 g
  Paw withdrawal threshold force, Week 4 Mean: 191.5 g
[1]; Group D diabetic, 50 mg/kg p.o. once daily for 5 days during Week 5
  Paw withdrawal threshold force, Week 5 Mean: 214.9 g
[1]; Group D diabetic, Week 6, drug washout, last 50 mg/kg dose on Friday of week 5
  Paw withdrawal threshold force, Week 6 Mean: 186.2 g
[1]; one week after treatment with 50 mg/kg for 5 days, p<0.002, 50 mg/kg
  Effect of withdrawal and washout of the drug on hyperalgesia: return of the hyperalgesia; also recorded: force required to cause a paw withdrawal reaction was reduced
[1]; previously untreated diabetic rats, single 50 mg/kg dose, p<<0.0001, 50 mg/kg
  Effect on mechanical hyperalgesia after a single dose: obliterated the mechanical hyperalgesia; also recorded: increase in force necessary to evoke a hyperalgesic pain response
[3]; [7]
  Effect on Phase I flinches: not significant effect
  Effect on Phase II flinches: not significant effect
  Effect on Phase IIA flinches: statistically significant effect; also recorded: significantly reduced
  Effect on Phase IIB flinches: not significant effect
[3]; 100 mg/kg orally, rats
  Behavioral deficits: No behavioral deficits were noted
